Measurements from paper PMC10746543, “Design principles for cyclin K molecular glue degraders” (Nature Chemical Biology, 2023).
Values joined by “and” are separate entries in the source; they are usually repeats but may differ in a detail not shown here. Identical values can stand only once. Like-named read-outs stand apart in the source and are kept apart here.

Tests used:
[1] = biological target: T1, CDK12–cyclin K and DDB1 (Homo sapiens, UniProt Q16531+Q9NYV4, K965R); assay: TR-FRET ternary complex formation assay (compound titration); type: binding
T1 construct: His6–CDK12 (a.a. 713–1,052); full-length or beta-propeller B domain deletion (ΔBPB: a.a. 396–705 deleted) constructs of His6–DDB1ΔBPB, StrepII–Avi–DDB1, or His6–Spy–DDB1; made in house; host or cells: Trichoplusia ni High Five insect cells (baculovirus)
T1 sequence (Q9NYV4 713-1052 K965R): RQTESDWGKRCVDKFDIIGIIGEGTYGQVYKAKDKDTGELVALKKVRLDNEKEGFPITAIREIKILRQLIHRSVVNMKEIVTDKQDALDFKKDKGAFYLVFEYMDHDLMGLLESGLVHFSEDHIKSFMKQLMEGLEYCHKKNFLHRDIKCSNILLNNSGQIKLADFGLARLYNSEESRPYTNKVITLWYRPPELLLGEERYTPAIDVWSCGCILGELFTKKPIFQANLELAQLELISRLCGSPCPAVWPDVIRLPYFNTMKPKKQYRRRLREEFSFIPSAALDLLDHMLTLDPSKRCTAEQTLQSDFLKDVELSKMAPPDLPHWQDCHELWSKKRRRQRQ
T1 sequence (O75909 1-267 partner): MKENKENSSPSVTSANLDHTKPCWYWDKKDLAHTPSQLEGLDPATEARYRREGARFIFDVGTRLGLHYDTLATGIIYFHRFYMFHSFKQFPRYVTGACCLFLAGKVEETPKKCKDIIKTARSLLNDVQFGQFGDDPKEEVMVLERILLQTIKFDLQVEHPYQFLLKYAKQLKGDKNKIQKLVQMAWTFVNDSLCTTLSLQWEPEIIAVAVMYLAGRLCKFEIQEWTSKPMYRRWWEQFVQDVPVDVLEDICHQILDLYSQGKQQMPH
T1 sequence (Q16531 whole entry): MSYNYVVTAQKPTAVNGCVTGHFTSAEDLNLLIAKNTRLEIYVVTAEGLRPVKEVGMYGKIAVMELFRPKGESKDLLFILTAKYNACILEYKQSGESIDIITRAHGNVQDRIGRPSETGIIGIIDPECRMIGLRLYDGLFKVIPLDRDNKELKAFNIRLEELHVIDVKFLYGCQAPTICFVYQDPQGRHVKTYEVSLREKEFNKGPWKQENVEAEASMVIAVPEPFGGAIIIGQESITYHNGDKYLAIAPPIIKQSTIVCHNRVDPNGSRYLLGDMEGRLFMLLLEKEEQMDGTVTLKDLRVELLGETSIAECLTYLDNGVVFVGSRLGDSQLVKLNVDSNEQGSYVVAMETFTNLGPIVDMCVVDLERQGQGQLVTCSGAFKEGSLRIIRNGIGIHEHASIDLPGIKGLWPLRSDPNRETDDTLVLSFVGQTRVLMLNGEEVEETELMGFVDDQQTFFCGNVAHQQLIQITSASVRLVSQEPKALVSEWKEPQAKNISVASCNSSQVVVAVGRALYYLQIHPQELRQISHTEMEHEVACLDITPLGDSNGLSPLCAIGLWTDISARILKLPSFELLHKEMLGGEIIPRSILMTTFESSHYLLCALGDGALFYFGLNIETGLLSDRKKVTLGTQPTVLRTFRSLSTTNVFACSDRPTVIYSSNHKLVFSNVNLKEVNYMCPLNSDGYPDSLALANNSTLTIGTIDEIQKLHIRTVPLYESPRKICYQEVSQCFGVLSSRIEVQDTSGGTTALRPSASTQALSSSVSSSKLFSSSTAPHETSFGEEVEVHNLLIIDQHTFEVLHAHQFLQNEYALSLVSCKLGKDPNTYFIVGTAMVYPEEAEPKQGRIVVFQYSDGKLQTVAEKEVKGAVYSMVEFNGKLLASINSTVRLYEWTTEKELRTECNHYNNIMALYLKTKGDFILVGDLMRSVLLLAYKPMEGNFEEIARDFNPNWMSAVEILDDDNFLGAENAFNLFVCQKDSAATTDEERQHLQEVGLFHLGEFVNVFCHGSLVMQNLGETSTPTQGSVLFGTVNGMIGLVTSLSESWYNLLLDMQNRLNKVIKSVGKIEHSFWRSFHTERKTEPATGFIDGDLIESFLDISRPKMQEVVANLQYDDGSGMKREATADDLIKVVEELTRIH
In short: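 Signal was the ratio of 520 nm to 490 nm fluorescence, measured after a 70 μs delay that reduced background.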

[2] = tested on: cyclin K–eGFP degradation reporter; assay: Cyclin K reporter stability analysis (dual-color cyclin K–eGFP reporter); type: cell-based, human; details: Supplementary Table 2; HEK293T cycK-eGFP reporter, 5 h; read-out: Cellular assays DC50
In short: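 HEK293T–Cas9 cells carrying the cyclin K–eGFP reporter were seeded at 1 × 10^6 ml^−1 and exposed to drug or DMSO for 5 h. Flow cytometry gave geometric means of eGFP and mCherry in round, mCherry-positive cells. The eGFP/mCherry ratio was normalized to the mean of three DMSO controls.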

[3] = tested on: HEK293T cells; assay: Drug sensitivity assay (CellTiter-Glo viability) with or without MLN4924 pretreatment; type: cell-based, human; details: Supplementary Table 2
In short: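 HEK293T–Cas9, 0.15 × 10^6 ml^−1; pretreat DMSO vs 100 nM MLN4924; drugs dispensed after 2 h; 3 d exposure; CellTiter-Glo; viability vs DMSO control.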

[4] = biological target: CDK12–cyclin K (Homo sapiens, UniProt Q9NYV4); assay: Lanthascreen kinase binding assay, CDK12; details: for Lanthascreen raw signal, sheet CDK12: series r1, duplicates
Chain of CDK12–cyclin K (Q9NYV4 713-1052): as the sequence (Q9NYV4 713-1052 K965R) above, with R253K counted along it
Chain of CDK12–cyclin K (O75909 1-267 partner limits assumed): as the sequence (O75909 1-267 partner) above
Description: (§1) Lanthascreen experiments were performed using commercially available reagents (Thermo Fisher) and according to the manufacturer’s instructions.

[5] = biological target: T2, CDK9–cyclin T (Homo sapiens, UniProt P50750); assay: Lanthascreen kinase binding assay, CDK9; details: for Lanthascreen TR-FRET signal (raw ratio), sheet CDK9: first titration set (r1), duplicates
T2 construct: purchased Thermo Fisher
T2 sequence (P50750 whole entry): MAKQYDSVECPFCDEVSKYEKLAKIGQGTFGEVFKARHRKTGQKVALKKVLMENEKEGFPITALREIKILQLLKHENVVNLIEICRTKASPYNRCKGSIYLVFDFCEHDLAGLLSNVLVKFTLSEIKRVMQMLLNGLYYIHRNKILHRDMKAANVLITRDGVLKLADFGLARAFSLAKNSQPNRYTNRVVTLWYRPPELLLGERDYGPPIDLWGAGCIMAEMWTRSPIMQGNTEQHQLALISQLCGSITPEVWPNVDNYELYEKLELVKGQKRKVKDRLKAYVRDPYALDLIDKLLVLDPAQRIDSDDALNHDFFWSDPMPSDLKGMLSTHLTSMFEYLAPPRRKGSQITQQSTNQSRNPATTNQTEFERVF
T2 sequence (O60563 whole entry partner): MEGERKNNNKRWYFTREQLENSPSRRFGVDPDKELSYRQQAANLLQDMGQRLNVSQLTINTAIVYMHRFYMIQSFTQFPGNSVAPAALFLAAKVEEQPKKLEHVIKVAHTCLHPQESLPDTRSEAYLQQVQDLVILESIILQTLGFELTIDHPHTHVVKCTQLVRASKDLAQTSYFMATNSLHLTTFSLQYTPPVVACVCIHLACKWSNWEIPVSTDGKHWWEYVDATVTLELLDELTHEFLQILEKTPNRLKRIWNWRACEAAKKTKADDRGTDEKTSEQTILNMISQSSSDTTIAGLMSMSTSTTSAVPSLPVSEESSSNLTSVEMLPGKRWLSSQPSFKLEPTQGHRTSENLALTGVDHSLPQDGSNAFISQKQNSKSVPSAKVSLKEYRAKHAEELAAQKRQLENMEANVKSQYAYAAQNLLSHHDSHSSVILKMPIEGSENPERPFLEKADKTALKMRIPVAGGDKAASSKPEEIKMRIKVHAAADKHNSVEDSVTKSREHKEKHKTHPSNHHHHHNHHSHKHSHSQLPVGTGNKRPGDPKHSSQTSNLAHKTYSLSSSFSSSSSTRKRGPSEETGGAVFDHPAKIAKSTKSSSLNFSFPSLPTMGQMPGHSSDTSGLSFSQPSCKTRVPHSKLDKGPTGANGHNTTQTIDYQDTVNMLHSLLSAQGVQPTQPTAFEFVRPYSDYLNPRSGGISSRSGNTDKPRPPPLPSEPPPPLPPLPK
Description: as §1

[6] = biological target: T3, CDK2–cyclin A (Homo sapiens, UniProt P24941); assay: Lanthascreen kinase binding assay, CDK2; details: for Lanthascreen signal, sheet CDK2: raw replicates, experiment r1-r11
T3 construct: purchased Thermo Fisher
Description: as §1

EC50 ([1]; Supplementary Table 2, read-out: TR-FRET EC50 TR-FRET): 303 nM | TR-FRET signal ([1]; compound concentration 0.468 nM): 0.3146 and 0.2937 | TR-FRET signal ([1]; compound concentration 2.16 nM): 0.327 and 0.3142 | TR-FRET signal ([1]; compound concentration 3.6 nM): 0.3516 and 0.3492 | TR-FRET signal ([1]; compound concentration 4.68 nM): 0.1778 and 0.177 | TR-FRET signal ([1]; compound concentration 7.92001 nM): 0.4103 and 0.4025 | TR-FRET signal ([1]; compound concentration 15.84 nM): 0.4987 and 0.4962 | TR-FRET signal ([1]; compound concentration 21.6 nM): 0.3031 and 0.3042 | TR-FRET signal ([1]; compound concentration 30.96 nM): 0.6587 and 0.6967 | TR-FRET signal ([1]; compound concentration 36 nM): 0.5003 and 0.5187 | TR-FRET signal ([1]; compound concentration 62.6401 nM): 0.9444 and 1.024 | TR-FRET signal ([1]; compound concentration 79.2001 nM): 0.8582 and 0.8909 | TR-FRET signal ([1]; compound concentration 125.28 nM): 1.324 and 1.444 | TR-FRET signal ([1]; compound concentration 158.4 nM): 1.305 and 1.368 | TR-FRET signal ([1]; compound concentration 244.8 nM): 1.9166 and 1.983 | TR-FRET signal ([1]; compound concentration 309.6 nM): 1.882 and 1.916 | TR-FRET signal ([1]; compound concentration 626.401 nM): 2.43 and 2.4997 | TR-FRET signal ([1]; compound concentration 993.601 nM): 2.9527 and 2.952 | TR-FRET signal ([1]; compound concentration 1252.8 nM): 2.93 and 3.011 | TR-FRET signal ([1]; compound concentration 2001.6 nM): 3.382 and 3.238 | TR-FRET signal ([1]; compound concentration 2448 nM): 3.265 and 3.3741 | TR-FRET signal ([1]; compound concentration 9936.01 nM): 3.59 and 3.595 | TR-FRET signal ([1]; compound concentration 20016 nM): 3.713 and 3.698 | EC50 ([1]; in vitro complex formation, 50 nM CDK12–cyclin K, 100 nM DDB1, text and figures, read-out: TR-FRET EC50): 303 ± 16 nM | EC50 ([1]; sheet MOESM7, read-out: log TR-FRET EC50 (converted)): 303 nM | DC50 [2]: > 10000 nM | IC50 ([4]; Lanthascreen, average, Extended Data Fig. 8, read-out: CDK12 IC50): > 10000 nM | IC50 ([4]; Supplementary Table 2, read-out: Lanthascreen IC50 [nM] CDK12): > 10000 nM | Lanthascreen raw signal, sheet CDK12 ([4]; compound 1.02544 nM): 0.009993 and 0.009189 | Lanthascreen raw signal, sheet CDK12 ([4]; compound 3.15521 nM): 0.007678 and 0.01017 | Lanthascreen raw signal, sheet CDK12 ([4]; compound 9.46563 nM): 0.008332 and 0.008957 | Lanthascreen raw signal, sheet CDK12 ([4]; compound 31.5521 nM): 0.009201 and 0.006925 | Lanthascreen raw signal, sheet CDK12 ([4]; compound 99.3891 nM): 0.01004 and 0.007454 | Lanthascreen raw signal, sheet CDK12 ([4]; compound 315.521 nM): 0.008681 and 0.00881 | Lanthascreen raw signal, sheet CDK12 ([4]; compound 3155.21 nM): 0.008543 and 0.006433 | Lanthascreen raw signal, sheet CDK12 ([4]; compound 10002 nM): 0.006174 and 0.006044 | IC50 ([5]; Supplementary Table 2, read-out: Lanthascreen IC50 [nM] CDK9): 873 nM | Lanthascreen TR-FRET signal (raw ratio), sheet CDK9 ([5]; compound 1.02544 nM): 0.01205 and 0.01344 | Lanthascreen TR-FRET signal (raw ratio), sheet CDK9 ([5]; compound 3.15521 nM): 0.01275 and 0.01665 | Lanthascreen TR-FRET signal (raw ratio), sheet CDK9 ([5]; compound 9.46563 nM): 0.01222 and 0.01758 | Lanthascreen TR-FRET signal (raw ratio), sheet CDK9 ([5]; compound 31.5521 nM): 0.01391 and 0.02091 | Lanthascreen TR-FRET signal (raw ratio), sheet CDK9 ([5]; compound 99.3891 nM): 0.01184 and 0.01953 | Lanthascreen TR-FRET signal (raw ratio), sheet CDK9 ([5]; compound 315.521 nM): 0.01137 and 0.01786 | Lanthascreen TR-FRET signal (raw ratio), sheet CDK9 ([5]; compound 3155.21 nM): 0.003916 and 0.005427 | Lanthascreen TR-FRET signal (raw ratio), sheet CDK9 ([5]; compound 10002 nM): 0.004637 and 0.003497 | Lanthascreen signal, sheet CDK2 ([6]; Compound 1.02544 nM): 0.01007 and 0.009144 | Lanthascreen signal, sheet CDK2 ([6]; Compound 3.15521 nM): 0.0112 and 0.008273 | Lanthascreen signal, sheet CDK2 ([6]; Compound 9.46563 nM): 0.0109 and 0.01003 | Lanthascreen signal, sheet CDK2 ([6]; Compound 31.5521 nM): 0.009356 and 0.009077 | Lanthascreen signal, sheet CDK2 ([6]; Compound 99.3891 nM): 0.01058 and 0.01018 | Lanthascreen signal, sheet CDK2 ([6]; Compound 315.521 nM): 0.009946 and 0.008466 | Lanthascreen signal, sheet CDK2 ([6]; Compound 3155.21 nM): 0.009117 and 0.008683 | Lanthascreen signal, sheet CDK2 ([6]; Compound 10002 nM): 0.008076 and 0.006678 | IC50 ([6]; Lanthascreen, average, Extended Data Fig. 8, read-out: CDK2 IC50): > 10000 nM | IC50 ([6]; Supplementary Table 2, read-out: Lanthascreen IC50 [nM] CDK2): > 10000 nM
Compound: O=C(CCn1cnc2ccccc2c1=O)Nc1ccc(Br)cn1 [Z7]
EC50 ([3]; Homo sapiens, HEK-293T, HEK293T viability, 72 h, compound alone, read-out: Cellular assays EC50): > 10000 nM | Toxicity rescue ([3]; MLN4924-mediated cytotoxicity rescue, 10 µM used where n.d.): 0%
